Source: US5409946A, “Isoxazole, isothiazole and pyrazole compounds that enhance cognitive function” (Abbott Laboratories, priority 1993, dated 1995)
“Also recorded” adds a separate entry of the source. Structures can show the parent of a compound that is named as a salt. Where two headings read alike, the source gives them in different places.

Legend:
[1] = target: neuronal nicotinic receptors; assay: Displacement of [3H]-MCC or [3H]-cytisine from neuronal nicotinic receptors, whole rat brain membranes; assay type: binding; details: Table 1, read-out: Nicotinic Receptor Ki
Experimental: Binding of [^3 H]-methylcarbamylcholine ([^3 H]-MCC) or [^3 H]-cytisine ([^3 H]-CYT) to nicotinic receptors was accomplished using crude synaptic membrane preparations from whole rat brain (Snyder and Enna, Brain Research, 1975, 100:81). Washed membranes were stored at -80° C. prior to use. Frozen aliquots were slowly thawed and resuspended in 20 volumes of buffer (containing: 120 mM NaCl, 5 mM KCl, 2 mM MgCl2, 2 mM CaCl2 and 50 mM Tris-Cl, pH 7.4 @4° C). After centrifuging at 20,000 X g for 15 minutes, the pellets were resuspended in 30 volumes of buffer. Homogenate (containing 125-150 μg protein) was added to triplicate tubes containing concentrations of test compound and [^3 H]-MCC (3 nM) in a final volume of 500 μL. Samples were incubated for 60 minutes at 4° C., then rapidly filtered through Whatman GF/B filters presoaked in 0.5% polyethylimine using 3×4 mL of ice-cold buffer. Alternately, homogenate and test compound were incubated for 75 min with [^3 H]-CYT (1.3 nM), then rapidly filtered, as described above. The filters are counted in 4 mL of Ecolume® (ICN). […] IC50 values were determined with the ALLFIT nonlinear least squares curve-fitting program and IC50 values were converted to Ki values using the Cheng and Prusoff correction (Ki =IC50 /(1+[ligand]/Kd of ligand)). Alternately, data were expressed as a percentage of the total specific binding.

[2] = system: ethanol-induced narcosis; assay type: in vivo, male CD1 mice
Description: It is known that administration of ethanol to mice induces a state of narcosis in the animals. […] It is also known that certain compounds can modify the narcotic effect of ethanol in this model.
Animals: Male CD1 mice (Charles-River Co., Portage, Mich.) weighing 25-30 g were used in the experiments. Upon arrival they were caged in groups of 14 and allowed to acclimatize to laboratory conditions for one week before the beginning of the studies. They were fed standard rodent diet with food and water ad libitum.
Duration of sleep time: Mice received intraperitoneal (i.p.) injections of ethanol and either saline or one of the drug treatments. Upon loss of the righting reflex, a timer was started to record the duration of the sleep time until the reflex was recovered. Two types of experiments were conducted to study the effect of drugs before (pre-treatment) or after (post-treatment) the injection of the narcotic dose of ethanol. In the pre-treatment experiments the drugs were injected i.p., 15 minutes before ethanol. In the post-treatment experiments the drugs were administered i.p., 1 minute after the animals lost the righting reflex, which was approximately 5 minutes after administration of ethanol.
Drugs: Ethanol was prepared as a 20% v/v (16% w/v) solution in saline. Based on previous studies, a dose of 87 mmol/kg (4 g/kg) was selected as the narcotic dose. RO 15-4513, the benzodiazepine receptor inverse agonist discussed in the Background section, was purchased from RBI (Natick, Mass.). It was dissolved in saline solution with Tween-80 and ultrasonically homogenized for 3 minutes. […] The compounds of Examples 2 and 4, both novel neuronal nicotinic receptor ligands according to the present invention, were also dissolved in saline to the desired concentrations.

[3] = system: effects of ethanol; details: rats; cited from earlier work
[4] = system: cholinergic receptors located in the heart and in cortical tissues; details: cited from earlier work
[5] = in vivo; cited from earlier work
[6] = post-treatment, i.p., p<0.05, one-tailed t test

Row | SMILES | Ki [1] | other results
1 | Cc1cc([C@H]2C[C@H](O)CN2C)on1 (relative stereo) [Example 21, 3-Methyl-5-(trans-4-hydroxy-1-methyl-2-pyrrolidinyl)-isoxazole oxalate salt] | 114 nM | 
2 | Cc1cc([C@H]2C[C@H](CF)CN2C)on1 (relative stereo) [Example 22, 3-Methyl-5-(trans-4-fluoromethyl-1-methyl-2-pyrrolidinyl)-isoxazole hydrochloride] | 183 nM | 
3 | Cc1cc([C@H]2C[C@H](C)CN2C)on1 (relative stereo) [Example 24, 3-Methyl-5-(trans-1,4-dimethyl-2-pyrrolidinyl)-isoxazole oxalate salt] | 24 nM | 
4 | Cc1cc([C@H]2CC[C@H](C)N2C)on1 (relative stereo) [Example 25, 3-Methyl-5-(trans-1,5-dimethyl-2-pyrrolidinyl)-isoxazole oxalate salt] | 289 nM | 
5 | Cc1cc([C@@H]2CCCN2)on1 [Example 1, 3-Methyl-5-(2(S)-pyrrolidinyl)-isoxazole oxalate salt] | 289 nM | 
6 | CCc1cc([C@@H]2CCCN2)on1 [Example 3, 3-Ethyl-5-(2(S)-pyrrolidinyl)-isoxazole oxalate salt] | 621 nM | 
7 | CCc1cc([C@@H]2CCCN2C)on1.O=C(O)C(=O)O [Example 4, 3-Ethyl-5-(1-methyl-2(S)-pyrrolidinyl)-isoxazole oxalate salt] |  | Ki ([1]; oxalate salt): 9 nM; Sleeping time ([2]; post-treatment, 0.062 μmol/kg i.p.): 73 ± 12 % of controls; Sleeping time ([2]; post-treatment, 0.19 μmol/kg i.p.): 61 ± 7 % of controls; Sleeping time ([2]; post-treatment, 0.62 μmol/kg i.p.): 59 ± 8 % of controls; effect of post-treatment on ethanol-induced narcosis [2, 6]: significantly reduced
8 | CN1CCC[C@H]1c1cc(Cc2ccccc2)no1 [Example 7, 3-Benzyl-5-(1-methyl-2(S)-pyrrolidinyl)-isoxazole oxalate salt] |  | Ki ([1]; oxalate salt): 18 nM
9 | CN1CCC[C@H]1c1cc(Cc2ccccc2)no1 [Example 8, 3-Benzyl-5-(1-methyl-2(S)-pyrrolidinyl)-isoxazole hydrochloride salt] |  | Ki ([1]; hydrochloride salt): 13 nM
10 | CCCc1cc([C@@H]2CCCN2C)on1 [Example 9, 5-(1-Methyl-2(S)-pyrrolidinyl)-3-propyl-isoxazole hyrochloride salt] | 14 nM | 
11 | CCCCc1cc([C@@H]2CCCN2C)on1 [Example 10, 3-n-Butyl-5-(1-methyl-2(S)-pyrrolidinyl)-isoxazole hydrochloride salt] | 24 nM | 
12 | Cc1cc([C@@H]2CCCN2C)on1 [Example 11, 3-Methyl-5-(1-methyl-2(S)-pyrrolidinyl)-isoxazole hydrochloride salt] |  | Ki ([1]; hydrochloride salt): 3 nM
13 | CCc1cc([C@@H]2CCCN2C)on1 [Example 12, 3-Ethyl-5-(1-methyl-2(S)-pyrrolidinyl)-isoxazole hydrochloride salt] |  | Ki ([1]; hydrochloride salt): 7 nM
14 | CCN1CCC[C@H]1c1cc(C)no1 [Example 13, 5-(1-Ethyl-2(S)-pyrrolidinyl)-3-methyl-isoxazole hydrochloride salt] | 34 nM | 
15 | Cc1cc([C@H]2CCCN2)on1 [Example 14] | 10 nM | 
16 | Cc1cc([C@H]2CCCN2)on1 [Example 15, 3-Methyl-5-(2(R)-pyrrolidinyl)-isoxazole benzoate salt] | 7 nM | 
17 | Cc1cc([C@H]2CCCN2C)on1 [Example 16, 3-Methyl-5-(1-methyl-2(R)-pyrrolidinyl)-isoxazole hydrochloride salt] | 55 nM | 
18 | CCc1cc([C@H]2CCCN2)on1 [Example 17, 3-Ethyl-5-(2(R)-pyrrolidinyl)-isoxazole oxalate salt] | 12 nM | 

Row | SMILES | Ki [1] | other results
19 | Cc1cc([C@H]2CCCN2)sn1 [Example 19, 3-methyl-5-((2(R)-pyrrolidinyl)-isothiazole hydrochloride] | 228 nM | 
20 | COCc1cc([C@@H]2CCCN2C)on1 [Example 20, 3-Methoxymethyl-5-(1-methyl-2(S)-pyrrolidinyl)-isoxazole fumarate salt] | 22 nM | 
21 | CN1CCC[C@H]1c1cc(Br)no1 [Example 27, 3-Bromo-5-(1-methyl-2(S)-pyrrolidinyl)-isoxazole hydrochloride] | 7.7 nM | 
22 | CCN1C[C@H](C)C[C@H]1c1cc(C)no1 [Example 28c, trans-5-(1-ethyl-4-methyl-2(S)-pyrrolidinyl)-3-methyl-isoxazole hydrochloride] | 21 nM | 
23 | Cc1cc([C@@H]2C[C@@H](C)CN2C)on1 [Example 28d, trans-5-(1-methyl-4-methyl-2(S)-pyrrolidinyl)-3-methyl-isoxazole hydrochloride] | 17.1 nM | 
24 | COc1cc([C@@H]2CCCN2C)on1 [Example 29, 5-(1-methyl-2(S)-pyrrolidinyl-3-methoxy-isoxazole hydrochloride] | 62 nM | 
25 | CN1CCC[C@H]1c1cc(C(F)(F)F)no1 [Example 32, 3-trifluoromethyl-5-(1-methyl-2(S)-pyrrolidinyl)-isoxazole, hydrochloride] | 6.1 nM | 
26 | Cc1noc([C@@H]2CCCN2C)c1Cc1ccccc1 [Example 36, 3-methyl-5-(1-methyl-2(S)-pyrrolidinyl)-4-(phenylmethyl-isoxazole hydrochloride] | 77.6 nM | 
27 | CCc1c(C)noc1[C@@H]1CCCN1C [Example 37, 3-methyl-5-(1-methyl-2(S)-pyrrolidinyl)-4-ethyl-isoxazole hydrochloride] | 105 nM | 
28 | Cc1cc([C@H]2CCCCN2)on1 [Example 38, 3-methyl-5-(2(R)-piperidinyl)-isoxazole hydrochloride] | 386 nM | 
29 | Cc1cc([C@H]2CCCCN2C)on1 [Example 39, 3-methyl-5-(1-methyl-2(R)-piperidinyl)-isoxazole hydrochloride] | 357 nM | 
30 | Cc1cc([C@@H]2CCCCN2)on1 [Example 40, 3-methyl-5-(2(S)-piperidinyl)-isoxazole hydrochloride] | 283 nM | 
31 | Cc1cc([C@@H]2CCN2C)on1 [Example 41, 3-methyl-5-(1-methyl-2(S)-azetidinyl)-isoxazole hydrochloride] | 2.5 nM | 
32 | Cc1cc([C@@H]2CCCN2C)n(-c2ccccc2)n1 [Example 42, 3-methyl-5-(1-methyl-2(S)-pyrrolidinyl)-1-phenyl-pyrazole hydrochloride] | 145 nM | 
33 | Cc1cc([C@@H]2CCCN2C)[nH]n1 [Example 43, 3-methyl-5-(1-methyl-2(S)-pyrrolidinyl)-pyrazole hydrochloride] | 228 nM | 
34 | CCOC(=O)c1ncn2c1CN(C)C(=O)c1cc(N=[N+]=[N-])ccc1-2 [RO 15-4513] |  | antagonism of the effects of ethanol [3]: selectively antagonize the effects of ethanol in rats; Sleeping time ([2]; post-treatment, 1 μmol/kg i.p.): 84 ± 14 % of controls; Sleeping time ([2]; post-treatment, 3 μmol/kg i.p., statistically significant): 165 ± 22 % of controls; Sleeping time ([2]; post-treatment, 10 μmol/kg i.p.): 118 ± 13 % of controls; Sleeping time ([2]; post-treatment, 30 μmol/kg i.p.): 73 ± 11 % of controls; effect of post-treatment on ethanol-induced narcosis [2, 6]: significantly prolonged the narcotic effect of ethanol; also recorded: adversely potentiated the narcotic effect; Sleeping time ([2]; pre-treatment, 1 μmol/kg i.p.): 101 ± 9 % of controls; Sleeping time ([2]; pre-treatment, 3 μmol/kg i.p.): 107 ± 19 % of controls; Sleeping time ([2]; pre-treatment, 10 μmol/kg i.p.): 79 ± 6 % of controls; Sleeping time ([2]; pre-treatment, 30 μmol/kg i.p., statistically significant): 57 ± 14 % of controls; effect of pre-treatment on ethanol sleeping time ([2]; pre-treatment, i.p., p<0.05, one-tailed t test): significantly reduced the sleeping time of ethanol in mice
35 | CCN1C(=O)CC2(CCN(C)CC2)C1=O [RS-86] |  | agonism at cardiac receptors ([4]; cardiac): full agonist; agonism at cortical receptors ([4]; cortical): partial agonist
36 | C[N+](C)(C)CCOC(N)=O [carbachol] |  | CNS penetration [5]: poor CNS penetration
